Measured values published in the METLIN SMRT retention time set (Domingo-Almenara et al. 2019).

Experiment: gradient 5% acetonitrile 3 min, to 50% in 2 min, to 85% in 15 min, held 3 min, 100 µL/min
Settings: column: Zorbax Extend-C18 2.1 x 50 mm; eluents: water / acetonitrile, 0.1% formic acid
Procedure, shortened: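 Retention time was recorded from adduct peaks, which were picked computationally and each inspected manually. Pure standards ran in mixtures of ~100 molecules on HPLC coupled to a quadrupole time-of-flight mass spectrometer, in positive and negative ionization mode, through a Zorbax Extend-C18 column (2.1 × 50 mm, 1.8 μm) at 100 μL/min. Eluents were water and acetonitrile, each with 0.1% formic acid.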

SMILES	RP-LC retention time [s]
Cc1ccc(Nc2nc(C(=O)NC(C)Cc3ccco3)nc3ccccc23)cc1 (centres undefined)	873
Cc1ccc(NC(=O)N2CCC(c3cc(N)on3)CC2)cc1C	728
COC1=CC(=O)OC(/C=C/c2ccccc2)C1 (centres undefined)	883
O=c1ccc(-c2ccc(Cl)cc2)nn1CCCNS(=O)(=O)Cc1ccccc1	579
CCC(=O)N1CCCc2ccc(NC(=O)c3cccs3)cc21	827
O=C(CCNc1cnc2cnccn12)NCc1ccc(F)c(Cl)c1	601
CCNCc1ccc(-c2cc(Cl)ccc2Cl)o1	686
CCCNC(=O)Cn1c(CC)nc2c(c1=O)CN(Cc1ccccc1)CC2	589
O=C(Cc1cccc(F)c1)NC1CCN(c2cc(-c3ccc(F)cc3)[nH]n2)C1 (centres undefined)	716
O=C(Nc1ccc2c(N3CCCCC3)ncnc2c1)c1ccc(Br)o1	685
CCN1C(=O)COc2ccc(-c3noc(C4(c5ccccc5)CC4)n3)cc21	991
COc1ccc(Cl)cc1NC(=O)N1CCc2c(c(-c3nnc(-c4ccc(F)cc4)o3)nn2C)C1	993
O=C(CN1C(=O)C2CCCCN2c2ccc(C(=O)N3CCCC3)cc21)NCCc1ccco1 (centres undefined)	664
CCN(C(=O)c1ccc2c(c1)OCO2)c1nc(-c2ccccc2)cs1	1200
O=C(Nc1nnc(Cc2cccs2)o1)c1ccc(S(=O)(=O)N2CCOCC2)cc1	691
Cc1cc(C)cc(NC(=O)C2CCN(S(=O)(=O)c3ccc(-c4noc(C5CC5)n4)cc3)CC2)c1	838
Cc1ccc(NC(=O)C2CCCN(C(=O)C3Sc4ccccc4NC3=O)C2)cc1C (centres undefined)	862
Cc1oc(-c2[nH]ncc2C(=O)N2CCOCC2)cc1S(=O)(=O)N1CCOCC1	595
Clc1ccc(-c2noc(Cc3nnc(-c4ccccc4)o3)n2)cc1	1050
O=C(CN1CCCCC1c1nc(-c2cccc(F)c2)no1)Nc1ccc(F)cc1 (centres undefined)	1130
COc1ccc(/C=C/C(=O)c2ccc(OC)cc2OC)cc1	1100
Cn1c(=O)sc2cc(S(=O)(=O)N3CCC(C(=O)NCc4ccc5c(c4)OCO5)CC3)ccc21	784
Cn1c(C(=O)NCCC2=CCCCC2)cc2c(=O)oc3ccccc3c21	1050

SMILES	RP-LC retention time [s]
COC(=O)c1ccccc1NC(=O)c1nnn(-c2cc(C)ccc2Cl)c1C	1230
O=C(Cc1csc(NC(=O)NC2CCCC2)n1)NCCc1c[nH]c2ccccc12	754
Cc1sc(-c2cc(C(F)(F)F)[nH]n2)cc1S(=O)(=O)NCCc1cccs1	990
Cc1ccn(CC(=O)NC2CCN(c3ccc(=O)n(CC4CC4)n3)C2)n1 (centres undefined)	631
COc1cccc(S(=O)(=O)N2CCC(c3noc(-c4cccnc4)n3)C2)c1 (centres undefined)	846
C=CCn1c(NCc2ccccc2Cl)nc2ccccc21	699
CCOC(=O)c1cc2ccsc2n1CC(=O)Nc1ccc(F)c(F)c1	1020
Cn1c(=O)c2nc(S(=O)(=O)CCC(=O)Nc3ccc(F)c(Cl)c3)n(C)c2n(C)c1=O	756
O=c1c2ccccc2c(-c2nc(-c3ccncc3)no2)cn1-c1ccc(F)cc1	1080
CCSc1nnc(-c2nn(C)c3c2CN(C(=O)c2ccccc2Cl)CC3)n1C	747
CNC(=O)c1csc2c1CCCCC2	787
COc1ccc(-c2c(C(=O)Nc3ccccc3OC)nc3ccccn23)cc1	991
Cc1ccc(NC(=O)N2CCC(n3cnc4ccc(Cl)cc4c3=O)CC2)cc1C	913
CS(=O)(=O)N1CCC(OC2CCN(C(=O)Nc3ccc(F)cc3)CC2)CC1	729
O=C(NCc1ccc(F)cc1F)C1CCCN(c2nc3ccsc3c(=O)n2Cc2ccccc2)C1 (centres undefined)	938
COCc1nc2ccccc2n1CC(=O)NC1CCCCC1	642
Cc1ccc(CS(=O)(=O)N2CCC(n3c(-c4ccco4)nc4cccnc43)C2)cc1C (centres undefined)	995
O=c1ccc(-c2ccncc2)nn1CCCNS(=O)(=O)/C=C/c1ccccc1	582
O=C(c1cccnn1)N1C[C@@H](COCC2CC2)[C@H](c2ccncc2)C1	563
COc1ccc(S(=O)(=O)Nc2ccc(C)n(CC(=O)O)c2=O)cc1	678
CCCCCn1c(=O)c2ccccc2n(Cc2nc(-c3ccc(C)c(C)c3)no2)c1=O	795
O=C(Nc1ccc2c(c1)CCCN2S(=O)(=O)c1ccccc1)OCc1ccccc1	949
CCc1cc(C2CCCN2C(=O)Nc2ccc(C(=O)OC)cc2)on1 (centres undefined)	801

SMILES	RP-LC retention time [s]
O=C(CS(=O)(=O)c1c[nH]c2ccccc12)Nc1ccc2c(c1)OCCO2	651
COc1cccc(CC(=O)N2CCC3(CC2)NC(=O)c2ccc(Cl)cc2N3)c1	790
O=C(COc1ccccc1F)Nc1nnc(-c2ccsc2)o1	701
Cc1cc(N(C)C)n2nc(CN3CCN(c4cccc(Cl)c4)CC3)nc2n1	635
CC(C)n1c(SCC(=O)N2CCCC2)nnc1-c1ccc2c(c1)OCCCO2	671
Cc1ccc(C)c(NC(=O)c2cc(C(C)C)n3nccc3n2)c1	1240
COc1cc(CNC(=O)c2cnc(-c3ccccc3)nc2-c2ccncc2)cc(OC)c1	823
Cc1ccccc1CNC(=O)C1(C)CCCN(C(=O)Nc2cccc(Cl)c2C)C1 (centres undefined)	1060
Cn1c(=O)oc2cc(-c3noc(-c4ccc(C#N)cc4)n3)ccc21	988
CC(C)(C)C(=O)Nc1ccc(SCc2nnc(-c3ccc4c(c3)OCO4)o2)cc1	945
CCOc1nc2ccccc2nc1N1CCCC(C(=O)Nc2ccc(OC)c(Cl)c2)C1 (centres undefined)	1240
CC(C)CC(=O)Nc1ccc(N2CCOCC2)cc1C(=O)O	713
Cc1c(C2CCN(C(=O)c3ccc4c(c3)OCO4)CC2)noc1N	663
CCOC(=O)N1CCC(NC(=O)C2CCCN(c3cc(=O)n(C)c(=O)n3C)C2)CC1 (centres undefined)	621
O=C(CC1CCN(C(=O)NCc2ccccc2)CC1)NCc1ccc(F)cc1	737
O=C(NCCn1c(=O)n(Cc2ccc(F)cc2)c2cccnc21)C1CCCC1	782
CCCCS(=O)(=O)c1cc2c(cc1NC(=O)c1ccc(Br)cc1)n(C)c(=O)n2C	1020
CN1C(=O)COc2ccc(-c3csc(NC(=O)C4CC4)n3)cc21	778
CN(CCc1ccccn1)C(=O)c1cn2ccnc(-c3ccccc3)c2n1	563
O=C(CSc1nc2ccccc2o1)OCc1cc(-c2ccc3c(c2)OCCO3)on1	1000
Cc1c(-c2nnc(C3CCC3)o2)c(S(=O)(=O)Nc2cccc(Cl)c2F)c(C)n1C	1060
CCOc1ccc(NC(=O)Nc2nccn(-c3ccc(OC)cc3)c2=O)cc1	935
O=C(Nc1ccc(F)cc1)c1c(O)c2cccnc2n(-c2cccc(F)c2)c1=O	1220

SMILES	RP-LC retention time [s]
Cc1cnc(C(=O)NC2C[C@H]3CC[C@@H](C2)N3C(=O)c2ccc(C)s2)cn1 (some centres undefined)	683
O=C(c1n[nH]c2ccccc12)N1CCCn2nc(-c3cccs3)cc2C1	791
O=C(N[C@H](Cc1ccccc1)C(=O)NCc1cscn1)c1cccc(F)c1	762
COc1ccc(NC(=O)c2nc(C)oc2C)cc1OC	750
Cc1ccc(NS(=O)(=O)c2cc(-c3[nH]ncc3C(=O)N3CCOCC3)oc2C)c(F)c1	701
NC(=O)C1CCN(C2CC(=O)N(Cc3ccccc3)C2=O)CC1 (centres undefined)	579
Cc1ccccc1CN1CC(F)(F)C[C@H]1COc1ccncc1	821
CC(=O)N1c2ccc(S(=O)(=O)N3CCCCC3)cc2CC1C(=O)NCCCc1ccccc1 (centres undefined)	917
CCc1ccccc1S(=O)(=O)NCC(c1cccnc1)c1cn(C)c2ccccc12 (centres undefined)	787
CCn1ccc2c(cc(C(=O)Nc3ccc(F)cc3C)n2C)c1=O	726
CCc1noc(-c2nc(-c3cc(OC)c(OC)c(OC)c3)no2)n1	892
O=C(CC(=O)Nc1ccc2nc3n(c(=O)c2c1)CCCCC3)Nc1ccc(F)cc1	705
Cn1c(SCC(=O)c2ccc(F)cc2)nnc1-c1ccncc1	620
Cc1ccc2c(c1)N(CCCC(=O)N1CCN(c3cc(=O)n(C)c(=O)n3C)CC1)C(=O)CO2	700
COc1cccc(C(=O)NC2CCN(c3cc(-c4cccs4)[nH]n3)C2)c1OC (centres undefined)	722
COc1ccc(NC(=O)c2c(C)oc3nc(C)nc(N4CCCC4)c23)cc1	704
CNC(=O)C1CCN(S(=O)(=O)Cc2ccccc2)CC1	655
Cc1cccc(-c2nn3c(N4CCN(c5ccccn5)CC4)cc(C)nc3c2C)c1	648
CCCN1C(=O)COc2ccc(-c3noc(-c4cccc(F)c4)n3)cc21	1200
COc1ccc(-c2nc(-c3nnn(Cc4ccccc4)c3C)no2)c(OC)c1	990
